From the NIST ThermoML archive (doi:10.1016/j.jct.2008.07.021) come the findings set out here.

Numbers after ± are expanded uncertainties.

The conditions of data set [1]: Crystal; DTA.
Data set [2] can be described thus: Molar enthalpy of transition or fusion. Conditions: Crystal; DSC.
Data set [3] in a line: molar enthalpy of vaporization or sublimation. Conditions: 298.15 K; Crystal; Static calorimetry.

As for `COc1ccc2c(c1)C(=O)CCC2` [7-methoxy-1-tetralone], the Triple point temperature in data set [1] is on record as 334.79 ± 0.39 K. For the same compound, the “Molar enthalpy of transition or fusion” value in data set [2] is 5.54 ± 0.127 kcal/mol. Besides, in data set [3], the molar enthalpy stood at 24.6 ± 0.43 kcal/mol.

Turning to `COc1cccc2c1CCCC2=O` [3,4-dihydro-5-methoxy-1(2H)-naphthalenone], the Triple point temperature in data set [1] worked out at 362.52 ± 0.39 K. Also, in data set [2], the “Molar enthalpy of transition or fusion” value was 5.29 ± 0.124 kcal/mol. In addition, in data set [3], the molar enthalpy is 23.4 ± 0.215 kcal/mol.

In the case of `COc1ccc2c(c1)CCCC2=O` [3,4-dihydro-6-methoxy-1(2H)naphthalenone], the Triple point temperature in data set [1] is on record as 351.27 ± 0.49 K. In data set [2], the “Molar enthalpy of transition or fusion” value was 5.45 ± 0.182 kcal/mol. In data set [3], the molar enthalpy was determined as 25 ± 0.43 kcal/mol.
